pIC50: −log10 of the molar value. Activity calls are given as the source filed them. No rule for the calls is given here.
Target: Ubiquitin carboxyl-terminal hydrolase 10 (Homo sapiens) (UniProt Q14694)
Assay: primary hit verification, biochemical, ubiquitin-specific protease 10 deubiquitylase inhibitors, concentration-effect titration (AID 1645863);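 also: potency values describe inhibition of USP10 cleavage of a fluorogenic ubiquitin substrate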
Details: USP10 deubiquitinase enzymatic assay

Ubiquitin carboxyl-terminal hydrolase 10 (Homo sapiens), sequence (Q14694 whole entry, looked up): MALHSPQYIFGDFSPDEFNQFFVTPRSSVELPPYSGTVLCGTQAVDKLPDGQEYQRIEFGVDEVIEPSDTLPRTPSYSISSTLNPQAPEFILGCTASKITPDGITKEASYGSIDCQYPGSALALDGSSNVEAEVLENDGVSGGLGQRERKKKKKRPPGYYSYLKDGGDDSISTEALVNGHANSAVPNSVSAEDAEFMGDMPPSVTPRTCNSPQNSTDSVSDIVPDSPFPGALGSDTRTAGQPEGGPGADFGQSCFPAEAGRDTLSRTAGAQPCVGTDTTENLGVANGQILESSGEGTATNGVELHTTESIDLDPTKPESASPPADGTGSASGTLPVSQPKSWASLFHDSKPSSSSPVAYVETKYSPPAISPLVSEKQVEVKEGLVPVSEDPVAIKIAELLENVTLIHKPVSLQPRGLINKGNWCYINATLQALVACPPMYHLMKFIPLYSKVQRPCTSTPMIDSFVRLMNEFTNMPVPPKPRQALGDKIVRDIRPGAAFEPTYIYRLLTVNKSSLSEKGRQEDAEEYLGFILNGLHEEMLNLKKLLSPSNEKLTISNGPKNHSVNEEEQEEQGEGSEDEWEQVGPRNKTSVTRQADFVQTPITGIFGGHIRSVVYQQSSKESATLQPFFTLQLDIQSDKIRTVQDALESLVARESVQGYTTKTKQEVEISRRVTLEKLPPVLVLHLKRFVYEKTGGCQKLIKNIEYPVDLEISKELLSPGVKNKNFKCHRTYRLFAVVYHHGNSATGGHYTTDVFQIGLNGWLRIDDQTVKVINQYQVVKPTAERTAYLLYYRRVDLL

SMILES | IC50 | pIC50
Cc1c(OCC(=O)NCc2ccccc2Cl)ccc2c3c(c(=O)oc12)CCC3 | > 40 µM (inactive) | 
CC(C)=CCc1c(O)cc2c(c1C)OC(=O)c1c(C)c(Cl)c(O)c(CO)c1O2 |  | 4.80
Cc1nc(-c2ccccc2)sc1-c1nc(-c2ccccc2)ncc1S(=O)(=O)c1ccccc1 | > 40 µM (inactive) | 
COC(=O)c1ccc(C(=O)Nc2cc3ccccc3cc2NC(=O)c2ccc(C(=O)OC)cc2)cc1 | > 40 µM (inactive) | 
COc1ccccc1NC(=O)CSC1=NC2(CCCCC2)Nc2ccccc21 | > 40 µM (inactive) | 
O=C(c1[nH]nc2c1COc1ccccc1-2)N1CCN(c2ccccn2)CC1 | > 40 µM (inactive) | 
CS(=O)(=O)c1ccc2nc(N(Cc3cccnc3)C(=O)c3ccc4ccccc4c3)sc2c1 | > 40 µM (inactive) | 
COc1ccc(-c2n[nH]n3c2nc(=O)c2ccc(C(=O)NCc4ccco4)cc23)cc1 | > 40 µM (inactive) | 
CC(=O)Nc1ccc(C(=O)/C=C2\NCCc3cc4c(cc32)OCCCO4)cc1 | > 40 µM (inactive) | 
Cc1ccc(CNC(=O)c2ccc3nn(CC(=O)Nc4ccccc4F)c(=O)n3c2)cc1 | > 40 µM (inactive) | 
Cc1ccccc1-c1noc(-c2ccccc2OCC(=O)NC(C)C)n1 | > 40 µM (inactive) | 
CCC/C=C\C#CC/C=C\CCCCCCCC(=O)O |  | 5.48
Cc1ccc(NC(=O)COc2ccccc2/C=C2/NC(=O)N(Cc3ccc(F)cc3)C2=O)cc1 | > 40 µM (inactive) | 
Cc1cccc(C(=O)Nc2cccc(SC(C(=O)Nc3ccc(O)c(C(=O)O)c3)c3ccccc3)c2)c1 (centres undefined) | > 40 µM (inactive) | 
COc1cc(C2CC(=O)c3c([nH]c(C(=O)OCCOc4ccccc4)c3C)C2)cc(OC)c1OC (centres undefined) | > 40 µM (inactive) | 
O=C(c1cnc2[nH][nH]c(=O)c2c1)c1cc(Cl)cc(Cl)c1O |  | 5.24
O=C(/C=C/c1ccco1)N1CCC(Cn2cccn2)CC1 | > 40 µM (inactive) | 
CC1=CC(=O)C(C2=C(O)C(=O)C(C)=CC2=O)=C(O)C1=O |  | 4.92
Cc1ccc2[nH]cc(S(=O)(=O)c3cc(F)cc(F)c3)c(=O)c2c1 | > 40 µM (inactive) | 
COc1cccc(C2c3[nH]c4ccccc4c3C[C@@H]3C(=O)N(CC(O)c4ccccc4)CC(=O)N23)c1 (some centres undefined) | > 40 µM (inactive) | 
COc1ccc(S(=O)(=O)NCc2ccc3c(c2)cc(C)n3C)cc1 | > 40 µM (inactive) | 
Cc1cccc(NC(=O)CCCc2nnc3c(=O)n(-c4cccc(F)c4)ccn23)c1 | > 40 µM (inactive) | 
CCCCCCCCC/C=C/C(=O)CCc1c(O)c(C=O)c2c(c1O)C(=O)OC2O (centres undefined) |  | 6.23
Cc1ccc(NC(=O)CSc2nnc(-c3n[nH]c4c3CCC4)n2N)cc1C |  | 4.58

SMILES | IC50 | pIC50
O=C(CCCC(=O)N(c1ccc2c(c1)OCCO2)C(C(=O)NC1CCCCC1)c1ccc(F)cc1)Nc1ccccn1 (centres undefined) |  | 4.56
O=C(CCc1ccc(S(=O)(=O)N2CCOCC2)cc1)OCC(=O)c1ccc(-c2ccccc2)cc1 |  | 4.41
Cc1noc(C)c1COc1cccc(C(=O)Nc2cc(Cl)ccc2-n2cncn2)c1 | > 40 µM (inactive) | 
CC/C=C\C/C=C\C/C=C\CCCCCCCC(=O)O |  | 4.93
Nc1ncnc2c1ncn2[C@@H]1O[C@H](CO)C[C@@H]1O |  | 4.60
Cc1nnc(-c2cc(S(=O)(=O)N3CCN(c4ccc(F)cc4)CC3)c[nH]2)o1 | > 40 µM (inactive) | 
N#Cc1ccc(NC(=O)Nc2cccn(Cc3c(F)cccc3Cl)c2=O)cc1 | > 40 µM (inactive) | 
Cc1cc(NC(=O)CN2CCCN(S(=O)(=O)c3ccc(F)cc3)CC2)ccc1Br | > 40 µM (inactive) | 
Cc1ccc(-n2nc(C)c3c2NC(=O)CC3C(=O)c2cc3ccccc3o2)cc1C (centres undefined) | > 40 µM (inactive) | 
Cc1ccc(C(=O)O)cc1NC(=O)C(Sc1cccc(NC(=O)c2cccc(Cl)c2)c1)c1ccccc1 (centres undefined) | > 40 µM (inactive) | 
Cc1ccc2c(c1)c(=O)c(C(=O)c1ccccc1)cn2CC(=O)Nc1ccc2c(c1)OCO2 | > 40 µM (inactive) | 
NC(=O)C1(N2CCCCC2)CCN(c2ncc3c(=O)n(-c4ccccc4)c(=O)[nH]c3n2)CC1 | > 40 µM (inactive) | 
Cc1occ2c1C(=O)c1c(O)ccc(O)c1C2 |  | 5.32
FC(F)(F)c1cccc(Nc2nc(-c3ccccn3)nc3ccccc23)c1 | > 40 µM (inactive) | 
Cc1cc(C)c(NC(=O)Cn2c(=O)n(CCC(=O)NCc3ccc4c(c3)OCO4)c(=O)c3sccc32)c(C)c1 |  | 4.67
O=C(C1=CSCCO1)N1CCc2ccccc2C1 | > 40 µM (inactive) | 
Fc1ccccc1-c1nnc(C2(c3ccc4c(c3)OCO4)CCOCC2)o1 | > 40 µM (inactive) | 
O=C(Nc1ccc(Cl)cc1F)c1cc(-c2ccccn2)n[nH]1 | > 40 µM (inactive) | 
CCOc1ccc(S(=O)(=O)Nc2ccc[nH]c2=O)cc1 | > 40 µM (inactive) | 
CC1(C(=O)NCc2ccc(F)cc2)Cn2nc(-c3ccco3)cc2C(=O)N1c1ccc2c(c1)OCCO2 (centres undefined) | > 40 µM (inactive) | 
Cc1cc(C(=O)N2CCOCC2)c(C)n1-c1ccc(O)cc1 | > 40 µM (inactive) | 
CCc1ccc(-n2c(C)cc(/C=C3\C(=N)N4N=CSC4=NC3=O)c2C)cc1 | > 40 µM (inactive) | 
COc1ccc(NC(=O)Cn2cc(C(=O)c3ccc(C)cc3)c(=O)c3ccccc32)cc1 |  | 4.52
Cc1ncc(CO)c2c1Oc1nc(-c3cccc(Cl)c3)nc(SCC(=O)N3CCCCC3)c1C2 | > 40 µM (inactive) | 

SMILES | IC50 | pIC50
COc1ccccc1C(=O)Nc1ccc(-c2nc3ccccc3o2)c(O)c1 | > 40 µM (inactive) | 
COc1cccc(C(=O)Nc2ccc(SC(C)C(=O)Nc3ccc(C(N)=O)cc3)cc2)c1 (centres undefined) |  | 4.60
O=C(Oc1ccc2cc(Br)ccc2c1)c1ccncc1 | > 40 µM (inactive) | 
COc1ccc(NC(=O)Cn2c(=O)n(-c3ccc(CC(=O)NCc4ccco4)cc3)c(=O)c3ccccc32)cc1Cl |  | 4.82
COc1ccc(-c2ccc3cc(C(=O)O)ccc3c2)cc1C12CC3CC(CC(C3)C1)C2 |  | 5.24
Cc1ccc2[nH]c(=O)c(-c3nc4ccccn4c3NCc3ccccc3)cc2c1 |  | 4.62
CCOc1ccc(NC(=O)Cn2c(=O)n(CCCCCC(=O)NCc3ccc(F)cc3)c(=O)c3sccc32)cc1 |  | 4.75
O=C(Cn1c(=O)[nH]c2c(-c3ccc(F)cc3)c[nH]c2c1=O)NCc1ccc(F)cc1 | > 40 µM (inactive) | 
COc1ccc(-c2cc(C(=O)Nc3ccnn3Cc3ccccc3)no2)cc1 | > 40 µM (inactive) | 
Cc1ccc(C)c(S(=O)(=O)N2CCN(c3ccc4nnc(-c5ccco5)n4n3)CC2)c1 | > 40 µM (inactive) | 
CCc1[nH]c(=O)cc2cc(OC)c(OC)cc12 |  | 5.53
O=C(Nc1cccc(-c2nc3cnccc3o2)c1)c1ccc(Br)o1 | > 40 µM (inactive) | 
Cc1nc2c(nnn2C[C@H]2CCCN2C(=O)c2ccc(F)cc2)c(=O)[nH]1 | > 40 µM (inactive) | 
N#Cc1ccc(NC(=O)Nc2cccn(Cc3ccccc3F)c2=O)cc1 | > 40 µM (inactive) | 
Cc1sc2ccn(C)c(=O)c2c1C(=O)NC1CCCC1 |  | 4.56
O=C(Nc1ccc2c(c1)CCC2)C1Cc2ccccc2CN1C(=O)c1ccccc1 (centres undefined) | > 40 µM (inactive) | 
Nc1c(-c2nc(-c3ccccc3Cl)no2)nnn1-c1ccc(Cl)cc1 |  | 4.94
O=C(Cn1c(=O)n(CC2CCC(C(=O)NCCc3ccccc3)CC2)c(=O)c2ccccc21)NCc1ccco1 (centres undefined) |  | 4.64
Cc1cc(NC(=O)Cn2c(=O)n(CCCCC(=O)NCc3ccco3)c(=O)c3ccccc32)ccc1Br |  | 4.84
COc1cc2c(=O)n(CCC(=O)NC3CCCC3)c(=O)n(CC(=O)Nc3cccc(Cl)c3)c2cc1OC |  | 4.44
O=C(COc1ccc(N2CC(C(=O)NCc3ccc4c(c3)OCO4)CC2=O)cc1)Nc1ccc(Cl)cc1 (centres undefined) |  | 4.93
O=S(=O)(c1ccccc1Cl)N1CCN(c2ccc3nnc(-c4ccco4)n3n2)CC1 | > 40 µM (inactive) | 
CNC(=O)c1cc2nc(N(C)C)n(-c3ccc(F)cc3)c2s1 | > 40 µM (inactive) | 
Cc1ccc([N+](=O)[O-])cc1S(=O)(=O)Nc1cc2sc(=O)oc2c2ccccc12 | > 40 µM (inactive) | 

SMILES | IC50 | pIC50
CCOC(=O)N1CCN(C(=O)c2ccc(CS(=O)c3ccccc3Cl)o2)CC1 (centres undefined) | > 40 µM (inactive) | 
COc1ccc(-c2cc3c(=O)n(CC(=O)Nc4ccccc4C)ccn3n2)cc1 | > 40 µM (inactive) | 
O=C(Cn1cnc(-c2noc(-c3cccc(F)c3)n2)c1)Nc1ccccc1 |  | 4.40
COc1ccc(CCC(=O)Nc2nnc(C3CC(=O)N(c4ccc(C)cc4)C3)s2)cc1 (centres undefined) |  | 4.87
Cc1sc(NC(=O)c2ccc(S(=O)(=O)N(C)Cc3ccccc3)cc2)c(C(N)=O)c1C | > 40 µM (inactive) | 
O=C(NCCc1cccnc1)c1ccn(-c2ccc3ccccn23)n1 | > 40 µM (inactive) | 
COc1ccc(N/C=C/c2onc(C)c2[N+](=O)[O-])c(OC)c1 | > 40 µM (inactive) | 
Cc1cc(C(=O)Nc2cc([N+](=O)[O-])cc3oc(-c4ccccc4)cc23)on1 | > 40 µM (inactive) | 
Cc1ccc(Cn2c(=O)c3ncccc3n(CC(=O)NCc3ccc(F)cc3)c2=O)cc1 |  | 4.58
O=C(CSc1nnc2ccc3ccccc3n12)c1ccc(Cl)cc1 | > 40 µM (inactive) | 
Cc1ccc(NC(=O)c2cc(-c3cccnc3)n[nH]2)cc1F | > 40 µM (inactive) | 
O=C(CNC(=O)OCc1ccccc1)Nc1ccc(Br)cc1C(=O)c1ccccc1Cl | > 40 µM (inactive) | 
COc1cc(O)c2c(O)c3c(cc2c1)C[C@@]1(O)CC(=O)C(C(N)=O)=C(O)[C@@]1(O)C3=O |  | 5.13
COc1ccc(-c2cc3n(c(=N)c2C#N)CCc2cc4c(cc2-3)OCO4)cc1O | > 40 µM (inactive) | 
O=C(O)c1nccnc1C(=O)N1CCc2ccccc2C1 | > 40 µM (inactive) | 
CN1CC(c2ncn[nH]2)c2cc(C(=O)NCc3cccc(F)c3)ccc21 (centres undefined) | > 40 µM (inactive) | 
Cc1cccc(NC(=O)CSc2nc3c(cc2C#N)C(=O)CCC3)c1 |  | 4.58
CN(C)c1ccc(S(=O)(=O)N2CCCCC2)cc1NC(=O)COc1ccccc1 | > 40 µM (inactive) | 
Cc1ccc(NC(=O)c2nnn(CC(=O)Nc3cccc(C)c3C)c2N)cc1C |  | 4.74
COc1ccc(OC)c(NC2=NS(=O)(=O)C(c3cccc(Br)c3)=C2C)c1 | > 40 µM (inactive) | 
CC(NC(=O)c1nc2n(n1)-c1ccccc1S(=O)(=O)N2)c1cc2ccccc2o1 (centres undefined) |  | 4.51
Cn1c2ccccc2c(=O)c2c(=O)n(Cc3ccco3)c(-c3ccccc3F)nc21 |  | 5.08

— PubChem BioAssay AID1645863 (Buhrlage Lab, Dana-Farber Cancer Institute and Novartis …, 2021)
